Tests used:
Format in all cases: cell-based
Parameters in all cases: expressed in transfected cells; host or cells: HEK293 cells, transient PEI transfection
AT1R [1] = biological target: T1, AT1R (Homo sapiens, UniProt P30556); assay: β-arrestin2 recruitment BRET (β-arrestin2-RLucII/rGFP-CAAX) in HEK293 cells expressing AT1R; settings: for Emax βarr2 (% AngII): HEK293/AT1R, β-arrestin2 BRET, response of the ligand at 10 μM, normalised to AngII; for EC50: HEK293 cells transiently expressing AT1R, β-arrestin2-RLucII/rGFP-CAAX BRET, read 10 min after ligand, mean ± SEM of at least three to five independent experiments, SEM, read-out: EC50 βarr2
T1 sequence (P30556 1-359): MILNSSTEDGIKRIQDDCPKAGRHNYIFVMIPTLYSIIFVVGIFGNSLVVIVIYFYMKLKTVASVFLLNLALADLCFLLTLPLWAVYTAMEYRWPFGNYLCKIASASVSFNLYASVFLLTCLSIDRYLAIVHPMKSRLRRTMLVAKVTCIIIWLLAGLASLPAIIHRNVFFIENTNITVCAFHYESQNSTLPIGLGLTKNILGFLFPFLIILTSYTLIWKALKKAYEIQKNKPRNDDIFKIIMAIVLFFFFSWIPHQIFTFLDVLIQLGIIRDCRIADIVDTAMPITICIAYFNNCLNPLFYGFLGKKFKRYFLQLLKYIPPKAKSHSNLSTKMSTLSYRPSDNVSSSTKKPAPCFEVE
Description: (§1) We utilized a clonal cell line HEK293, referred to hereafter as HEK293 cells, which has been previously described.[7],[8] As a gracious gift from A. Inoue (Tohoku University, Sendai, Miyagi, Japan), CRISPR Gαq/11 and Gα12/13 knockout cell lines (ΔGq/11 and ΔG12/13, respectively), were derived as previously explained.[48] In brief, a CRISPR-Cas9 system was used to target either GNAQ and GNA11 or GNA12 and GNA13 genes in HEK293T cells simultaneously to generate the Gαq/11 and Gα12/13 knockout cell lines. For the production of adenovirus, we utilized HEK293A cells. All cells were grown in DMEM supplemented with 10% FBS and Penicillin-Streptomycin-L-Glutamine (10000 IU penicillin, 10000 µg/mL Streptomycin, 200 mM L-Glutamine) at 37°C in T175 flasks under a 5% CO2 humidified chamber. Periodic testing was carried out for mycoplasma contamination (ABM™, Mycoplasma PCR Detection kit). For all biosensors used, cells underwent transfection with the PEI reagent, employing a PEI:DNA ratio of 3:1. For the Gαq biosensor, HEK293 cells were transfected with the plasmids coding for Gαq-RLucII (120 ng), Gβ1 (3000 ng), Gγ1-GFP10 (3000 ng), human AT1 (3000 ng) and Salmon sperm DNA (SSD) (880 ng). For the β-arrestin2 recruitment assay, HEK293 cells were transfected with the plasmids coding for 120 ng β-arrestin-2-RLucII, 3000 ng AT1, 3000 ng rGFP-CAAX, and 3880 ng SSD. For the measurement of PKC, HEK293 cells were transfected with 3000 ng AT1, 600 ng PKC-c1b, and 6400 ng SSD. […] 100 µL of the cell/DNA mixture was added to white 96-well plates and incubated at 37°C at 5% CO2 for 48 h. For the Rho assay, ΔG12/13 cells were seeded at a density of 9,000 cells per well in poly-ornithine-coated white 96-well plates and transfected the following day. In brief, 1 μg of total DNA in 100 μL of PBS was mixed with 100 μL of PBS containing 3 μL of 1 mg/mL PEI. For Rho signaling, 150 ng of AT1R DNA with 25 ng of PKN-RBD-RlucII [8], and 100 ng of rGFP-CAAX were used. Empty pcDNA was used to reach 1 µg of the total DNA amount in 100 μL of PBS. The DNA was then mixed with 100 μL of PBS containing 3 μL of 1 mg/mL PEI. After a 20-min incubation, the DNA/PEI complexes were dispensed into cells in 96-well plates (15 µL/well), and the experiment was carried out 48 h post-transfection.
(§2) On the day of the experiment, each well was washed with 80 µL of Tyrode’s buffer (140 mM NaCl, 2.7 mM KCl, 1 mM CaCl2, 12 mM NaHCO3, 5.6 mM D-glucose, 0.5 mM MgCl2, 0.37 mM NaH2PO4, 25 mM Hepes (pH 7.4)). This was followed by incubation for 1 h in Tyrode’s buffer at room temperature. For the Gαq, β-arrestin-2, and PKC biosensors used in HEK293 cells, coelenterazine 400A (at a final concentration of 5 μM) was added 10 min before stimulation. Cells were then stimulated with increasing doses of the indicated ligand, and BRET signals were measured using a Tristar2 (Berthold) microplate reader 10 min later. For the PKC and Rho biosensors in VSMCs, and the Rho biosensor in ΔG12/13 cells, cells were similarly stimulated with ligands for 1 min, 1 min 30 s, and 3 min, respectively, before BRET measurement. […] BRET signals were then measured using a Synergy2 (BioTek) microplate reader. The applied filter set was 410/80 nm and 515/30 nm, designed to detect the light emissions of RlucII (Renilla luciferase) (donor) and rGFP (acceptor), respectively.

AT1R [2] = biological target: T1, AT1R; assay: PKC BRET sensor in HEK293 cells expressing AT1R; settings: for Emax PKC (% AngII): PKC BRET sensor, response at 10 μM, normalised to AngII; for EC50: PKC-c1b BRET sensor, read 10 min after ligand, mean ± SEM of at least three to five independent experiments, SEM
Description: as §1
On the day of the experiment, each well was washed with 80 µL of Tyrode’s buffer (140 mM NaCl, 2.7 mM KCl, 1 mM CaCl2, 12 mM NaHCO3, 5.6 mM D-glucose, 0.5 mM MgCl2, 0.37 mM NaH2PO4, 25 mM Hepes (pH 7.4)). This was followed by incubation for 1 h in Tyrode’s buffer at room temperature. […] Cells were then stimulated with increasing doses of the indicated ligand, and BRET signals were measured using a Tristar2 (Berthold) microplate reader 10 min later. […] BRET signals were then measured using a Synergy2 (BioTek) microplate reader. […]

AT1R [3] = biological target: T1, AT1R; assay: Gαq activation BRET (GABY sensor) in HEK293 cells expressing AT1R; settings: for Emax Gαq (% AngII): HEK293/AT1R, GABY BRET sensor, response of the ligand at 10 μM, normalised to AngII; for EC50: HEK293 cells transiently expressing human AT1R, Gαq-RlucII/Gβ1/Gγ1-GFP10 (GABY) BRET sensor, BRET read 10 min after ligand, mean ± SEM of at least three to five independent experiments
Description: as §1, §2

`CC[C@H](C)[C@H](NC(=O)[C@H](Cc1ccc(O)cc1)NC(=O)[C@@H](NC(=O)[C@H](CCCNC(=N)N)NC(=O)[C@@H](N)CC(=O)O)C(C)C)C(=O)N[C@@H](Cc1c[nH]cn1)C(=O)N1CCC[C@H]1C(=O)N[C@@H](Cc1ccc(OC)cc1)C(=O)O` [compound 11] was tested, and the “Emax βarr2 (% AngII)” value (AT1R [1]) was 105 % AngII, the EC50 (AT1R [1]) was 0.36 ± 0.1 nM and the “Emax PKC (% AngII)” value (AT1R [2]) was 105 % AngII. The EC50 (AT1R [2]) was 0.66 ± 0.13 nM, the “Emax Gαq (% AngII)” value (AT1R [3]) was 113 % AngII and the EC50 (AT1R [3]; SEM) was 1.1 ± 0.4 nM.

`CC[C@H](C)[C@H](NC(=O)[C@H](Cc1ccc(O)cc1)NC(=O)[C@@H](NC(=O)[C@H](CCCNC(=N)N)NC(=O)[C@@H](N)CC(=O)O)C(C)C)C(=O)N[C@@H](Cc1c[nH]cn1)C(=O)N1CCC[C@H]1C(=O)N[C@@H](Cc1ccc(OCc2ccccc2)cc1)C(=O)O` [compound 12] was tested, and the “Emax βarr2 (% AngII)” value (AT1R [1]) was 89 % AngII, the EC50 (AT1R [1]) was 2.5 ± 0.4 nM and the “Emax PKC (% AngII)” value (AT1R [2]) was 51 % AngII. For the same molecule, the EC50 (AT1R [2]) was 4.8 ± 3.4 nM, the “Emax Gαq (% AngII)” value (AT1R [3]) was 11 % AngII and the EC50 (AT1R [3]) was over 10000 nM.

Source: doi:10.1101/2025.08.13.670122v1 (bioRxiv, 2025)
